Experimental data: ChEMBL document CHEMBL1140602, “A simple, yet highly accurate, QSAR model captures the complement inhibitory activity of compstatin” (Bioorg Med Chem, 2007)
Positions of bridges follow the written chain, without caps; N, C: chain ends. Residues, ends and D or L forms follow the SMILES beside them.

Assay: Inhibition of C3b activation relative to compstatin

Compound	logIC50
CC[C@H](C)[C@H](N)C(=O)N[C@H]1CSSC[C@@H](C(=O)N[C@H](C(=O)O)[C@@H](C)O)NC(=O)[C@H](CCCNC(=N)N)NC(=O)[C@H](Cc2cnc[nH]2)NC(=O)[C@H](C)NC(=O)CNC(=O)[C@H](Cc2c[nH]c3ccccc23)NC(=O)[C@H](CC(=O)O)NC(=O)[C@H](CCC(N)=O)NC(=O)[C@H](C2Cc3ccccc3C2)NC(=O)[C@H](C(C)C)NC1=O	1.55
CC[C@H](C)[C@H](N)C(=O)N[C@H]1CSSC[C@@H](C(=O)N[C@H](C(=O)O)[C@@H](C)O)NC(=O)[C@H](CCCNC(=N)N)NC(=O)[C@H](Cc2cnc[nH]2)NC(=O)[C@H](C)NC(=O)CNC(=O)[C@H](Cc2c[nH]c3ccccc23)NC(=O)[C@H](CC(=O)O)NC(=O)[C@H](CCC(N)=O)NC(=O)[C@H](Cc2ccc3ccccc3c2)NC(=O)[C@H](C(C)C)NC1=O	1.58
CC[C@H](C)[C@H](N)C(=O)N[C@H]1CSSC[C@@H](C(=O)N[C@H](C(N)=O)[C@@H](C)O)NC(=O)[C@H](CCCNC(=N)N)NC(=O)[C@H](Cc2cnc[nH]2)NC(=O)[C@H](Cc2cnc[nH]2)NC(=O)CNC(=O)[C@H](Cc2c[nH]c3ccccc23)NC(=O)[C@H](CC(=O)O)NC(=O)[C@H](CCC(N)=O)NC(=O)[C@H](C(C)C)NC(=O)[C@H](C(C)C)NC1=O	0
CC[C@H](C)[C@H](NC(C)=O)C(=O)N[C@H]1CSSC[C@@H](C(=O)N[C@H](C(=O)O)[C@@H](C)O)NC(=O)[C@H](CCCNC(=N)N)NC(=O)[C@H](Cc2cnc[nH]2)NC(=O)[C@H](C)NC(=O)CNC(=O)[C@H](Cc2c[nH]c3ccccc23)NC(=O)[C@H](CC(=O)O)NC(=O)[C@H](CCC(N)=O)NC(=O)[C@@H](Cc2csc3ccccc23)NC(=O)[C@H](C(C)C)NC1=O	1.83
CC[C@H](C)[C@H](NC(C)=O)C(=O)N[C@H]1CSSC[C@@H](C(=O)N[C@H](C(=O)O)[C@@H](C)O)NC(=O)[C@H](CCCNC(=N)N)NC(=O)[C@H](Cc2cnc[nH]2)NC(=O)[C@H](C)NC(=O)CNC(=O)[C@H](Cc2c[nH]c3ccccc23)NC(=O)[C@H](CC(=O)O)NC(=O)[C@H](CCC(N)=O)NC(=O)[C@H](Cc2ccc(C(=O)c3ccccc3)cc2)NC(=O)[C@H](C(C)C)NC1=O	1.69
CC[C@H](C)[C@H](NC(C)=O)C(=O)N[C@H]1CSSC[C@@H](C(=O)N[C@H](C(=O)O)[C@@H](C)O)NC(=O)[C@H](CCCNC(=N)N)NC(=O)[C@H](Cc2cnc[nH]2)NC(=O)[C@H](C)NC(=O)CNC(=O)[C@H](Cc2c[nH]c3ccccc23)NC(=O)[C@H](CC(=O)O)NC(=O)[C@H](CCC(N)=O)NC(=O)[C@H](Cc2cccc3ccccc23)NC(=O)[C@H](C(C)C)NC1=O	1.47
CC[C@H](C)[C@H](NC(C)=O)C(=O)N[C@H]1CSSC[C@@H](C(=O)N[C@H](C(N)=O)[C@@H](C)O)NC(=O)[C@H](CCCNC(=N)N)NC(=O)[C@H](Cc2cnc[nH]2)NC(=O)[C@H](C)NC(=O)CNC(=O)[C@H](Cc2c[nH]c3cc(F)ccc23)NC(=O)[C@H](CC(=O)O)NC(=O)[C@H](CCC(N)=O)NC(=O)[C@H](Cc2c[nH]c3cc(F)ccc23)NC(=O)[C@H](C(C)C)NC1=O	2.1
CC[C@H](C)[C@H](NC(C)=O)C(=O)N[C@H]1CSSC[C@@H](C(=O)N[C@H](C(N)=O)[C@@H](C)O)NC(=O)[C@H](CCCNC(=N)N)NC(=O)[C@H](Cc2cnc[nH]2)NC(=O)[C@H](C)NC(=O)CNC(=O)[C@H](Cc2c[nH]c3ccc(F)cc23)NC(=O)[C@H](CC(=O)O)NC(=O)[C@H](CCC(N)=O)NC(=O)[C@H](Cc2c[nH]c3ccccc23)NC(=O)[C@H](C(C)C)NC1=O	2.08
CC[C@H](C)[C@H](NC(C)=O)C(=O)N[C@H]1CSSC[C@@H](C(=O)N[C@H](C(N)=O)[C@@H](C)O)NC(=O)[C@H](CCCNC(=N)N)NC(=O)[C@H](Cc2cnc[nH]2)NC(=O)[C@H](C)NC(=O)CNC(=O)[C@H](Cc2c[nH]c3ccc(F)cc23)NC(=O)[C@H](CC(=O)O)NC(=O)[C@H](CCC(N)=O)NC(=O)[C@H](Cc2cn(C)c3ccccc23)NC(=O)[C@H](C(C)C)NC1=O	2.42
CC[C@H](C)[C@H](NC(C)=O)C(=O)N[C@H]1CSSC[C@@H](C(=O)N[C@H](C(N)=O)[C@@H](C)O)NC(=O)[C@H](CCCNC(=N)N)NC(=O)[C@H](Cc2cnc[nH]2)NC(=O)[C@H](C)NC(=O)CNC(=O)[C@H](Cc2c[nH]c3ccc(O)cc23)NC(=O)[C@H](CC(=O)O)NC(=O)[C@H](CCC(N)=O)NC(=O)[C@H](Cc2c[nH]c3ccc(O)cc23)NC(=O)[C@H](C(C)C)NC1=O	0.211
CC[C@H](C)[C@H](NC(C)=O)C(=O)N[C@H]1CSSC[C@@H](C(=O)N[C@H](C(N)=O)[C@@H](C)O)NC(=O)[C@H](CCCNC(=N)N)NC(=O)[C@H](Cc2cnc[nH]2)NC(=O)[C@H](C)NC(=O)CNC(=O)[C@H](Cc2c[nH]c3ccccc23)NC(=O)[C@H](CC(=O)O)NC(=O)[C@H](CCC(N)=O)NC(=O)[C@H](C2Cc3ccccc3C2)NC(=O)[C@H](C(C)C)NC1=O	1.58
CC[C@H](C)[C@H](NC(C)=O)C(=O)N[C@H]1CSSC[C@@H](C(=O)N[C@H](C(N)=O)[C@@H](C)O)NC(=O)[C@H](CCCNC(=N)N)NC(=O)[C@H](Cc2cnc[nH]2)NC(=O)[C@H](C)NC(=O)CNC(=O)[C@H](Cc2c[nH]c3ccccc23)NC(=O)[C@H](CC(=O)O)NC(=O)[C@H](CCC(N)=O)NC(=O)[C@H](CC2CCCCC2)NC(=O)[C@H](C(C)C)NC1=O	0.056
CC[C@H](C)[C@H](NC(C)=O)C(=O)N[C@H]1CSSC[C@@H](C(=O)N[C@H](C(N)=O)[C@@H](C)O)NC(=O)[C@H](CCCNC(=N)N)NC(=O)[C@H](Cc2cnc[nH]2)NC(=O)[C@H](C)NC(=O)CNC(=O)[C@H](Cc2c[nH]c3ccccc23)NC(=O)[C@H](CC(=O)O)NC(=O)[C@H](CCC(N)=O)NC(=O)[C@H](Cc2c[nH]c3ccc(C)cc23)NC(=O)[C@H](C(C)C)NC1=O	1.79
CC[C@H](C)[C@H](NC(C)=O)C(=O)N[C@H]1CSSC[C@@H](C(=O)N[C@H](C(N)=O)[C@@H](C)O)NC(=O)[C@H](CCCNC(=N)N)NC(=O)[C@H](Cc2cnc[nH]2)NC(=O)[C@H](C)NC(=O)CNC(=O)[C@H](Cc2c[nH]c3ccccc23)NC(=O)[C@H](CC(=O)O)NC(=O)[C@H](CCC(N)=O)NC(=O)[C@H](Cc2c[nH]c3ccccc23)NC(=O)[C@H](C(C)C)NC1=O	1.65
CC[C@H](C)[C@H](NC(C)=O)C(=O)N[C@H]1CSSC[C@@H](C(=O)N[C@H](C(N)=O)[C@@H](C)O)NC(=O)[C@H](CCCNC(=N)N)NC(=O)[C@H](Cc2cnc[nH]2)NC(=O)[C@H](C)NC(=O)CNC(=O)[C@H](Cc2c[nH]c3ccccc23)NC(=O)[C@H](CC(=O)O)NC(=O)[C@H](CCC(N)=O)NC(=O)[C@H](Cc2ccc(C(=O)c3ccccc3)cc2)NC(=O)[C@H](C(C)C)NC1=O	1.95
CC[C@H](C)[C@H](NC(C)=O)C(=O)N[C@H]1CSSC[C@@H](C(=O)N[C@H](C(N)=O)[C@@H](C)O)NC(=O)[C@H](CCCNC(=N)N)NC(=O)[C@H](Cc2cnc[nH]2)NC(=O)[C@H](C)NC(=O)CNC(=O)[C@H](Cc2c[nH]c3ccccc23)NC(=O)[C@H](CC(=O)O)NC(=O)[C@H](CCC(N)=O)NC(=O)[C@H](Cc2ccc(O)cc2)NC(=O)[C@H](C(C)C)NC1=O	1.17
CC[C@H](C)[C@H](NC(C)=O)C(=O)N[C@H]1CSSC[C@@H](C(=O)N[C@H](C(N)=O)[C@@H](C)O)NC(=O)[C@H](CCCNC(=N)N)NC(=O)[C@H](Cc2cnc[nH]2)NC(=O)[C@H](C)NC(=O)CNC(=O)[C@H](Cc2c[nH]c3ccccc23)NC(=O)[C@H](CC(=O)O)NC(=O)[C@H](CCC(N)=O)NC(=O)[C@H](Cc2cccc3ccccc23)NC(=O)[C@H](C(C)C)NC1=O	1.99
CC[C@H](C)[C@H](NC(C)=O)C(=O)N[C@H]1CSSC[C@@H](C(=O)N[C@H](C(N)=O)[C@@H](C)O)NC(=O)[C@H](CCCNC(=N)N)NC(=O)[C@H](Cc2cnc[nH]2)NC(=O)[C@H](C)NC(=O)CNC(=O)[C@H](Cc2c[nH]c3ccccc23)NC(=O)[C@H](CC(=O)O)NC(=O)[C@H](CCC(N)=O)NC(=O)[C@H](Cc2cn(C)c3ccccc23)NC(=O)[C@H](C(C)C)NC1=O	2.42
CC[C@H](C)[C@H](NC(C)=O)C(=O)N[C@H]1CSSC[C@@H](C(=O)N[C@H](C(N)=O)[C@@H](C)O)NC(=O)[C@H](CCCNC(=N)N)NC(=O)[C@H](Cc2cnc[nH]2)NC(=O)[C@H](C)NC(=O)CNC(=O)[C@H](Cc2c[nH]c3ccccc23)NC(=O)[C@H](CC(=O)O)NC(=O)[C@H](CCC(N)=O)NC(=O)[C@H](Cc2csc3ccccc23)NC(=O)[C@H](C(C)C)NC1=O	1.83
CC[C@H](C)[C@H](NC(C)=O)C(=O)N[C@H]1CSSC[C@@H](C(=O)N[C@H](C(N)=O)[C@@H](C)O)NC(=O)[C@H](CCCNC(=N)N)NC(=O)[C@H](Cc2cnc[nH]2)NC(=O)[C@H](C)NC(=O)CNC(=O)[C@H](Cc2c[nH]c3ncccc23)NC(=O)[C@H](CC(=O)O)NC(=O)[C@H](CCC(N)=O)NC(=O)[C@H](Cc2c[nH]c3ncccc23)NC(=O)[C@H](C(C)C)NC1=O	-0.358
CC[C@H](C)[C@H](NC(C)=O)C(=O)N[C@H]1CSSC[C@@H](C(=O)N[C@H](C(N)=O)[C@@H](C)O)NC(=O)[C@H](CCCNC(=N)N)NC(=O)[C@H](Cc2cnc[nH]2)NC(=O)[C@H](Cc2cnc[nH]2)NC(=O)CNC(=O)[C@H](Cc2c[nH]c3ccccc23)NC(=O)[C@H](CC(=O)O)NC(=O)[C@H](CCC(N)=O)NC(=O)[C@H](C(C)C)NC(=O)[C@H](C(C)C)NC1=O	0.477
CC[C@H](C)[C@H](NC(C)=O)C(=O)N[C@H]1CSSC[C@@H](C(=O)N[C@H](C(N)=O)[C@H](C)O)NC(=O)[C@H](CCCNC(=N)N)NC(=O)[C@H](Cc2cnc[nH]2)NC(=O)[C@H](C)NC(=O)CNC(=O)[C@H](Cc2c[nH]c3ccccc23)NC(=O)[C@H](CC(=O)O)NC(=O)[C@H](CCC(N)=O)NC(=O)[C@H](Cc2c[nH]c3ccc(F)cc23)NC(=O)[C@H](C(C)C)NC1=O	1.49
CC[C@H](C)[C@H](NC(C)=O)C(=O)N[C@H]1CSSC[C@@H](C(=O)N[C@H](C(N)=O)[C@H](C)O)NC(=O)[C@H](CCCNC(=N)N)NC(=O)[C@H](Cc2cnc[nH]2)NC(=O)[C@H](Cc2cnc[nH]2)NC(=O)CNC(=O)[C@H](Cc2c[nH]c3ccccc23)NC(=O)[C@H](CC(=O)O)NC(=O)[C@H](CCC(N)=O)NC(=O)[C@H](Cc2c[nH]c3ccccc23)NC(=O)[C@H](C(C)C)NC1=O	1.39
CC[C@H](C)[C@H](NC(C)=O)C(=O)N[C@H]1CSSC[C@@H](C(=O)N[C@H](C(N)=O)[C@@H](C)O)NC(=O)[C@H](CCCNC(=N)N)NC(=O)[C@H](Cc2cnc[nH]2)NC(=O)[C@H](Cc2cnc[nH]2)NC(=O)CNC(=O)[C@H](Cc2c[nH]c3ccccc23)NC(=O)[C@H](CC(=O)O)NC(=O)[C@H](CC(N)=O)NC(=O)[C@H](C(C)C)NC(=O)[C@H](CC(C)C)NC1=O (Ac-ICLVNDWGHHRCT-NH2; disulfide 2-12)	0.16
